Reference: PubChem BioAssay (NCI)
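48-hour exposure; five concentrations; linearly interpolated endpoints. TGI denotes the concentration required for complete inhibition of growth.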

Tests used:
Assay in all cases: growth of human tumour cells (NCI), 48 h
SF-539 CNS = test system: SF-539 CNS
NCI-H23 lung = test system: NCI-H23 lung
DLD-1 colon = test system: DLD-1 colon
DMS 114 small cell lung = test system: DMS 114 small cell lung
RXF 393 renal = test system: RXF 393 renal
LXFL 529 NSCLC = test system: LXFL 529 NSCLC
KM20L2 colon = test system: KM20L2 colon
K-562 leukemia = test system: K-562 leukemia
SK-MEL-2 melanoma = test system: SK-MEL-2 melanoma
SF-295 CNS = test system: SF-295 CNS
SK-MEL-5 melanoma = test system: SK-MEL-5 melanoma
XF 498 CNS = test system: XF 498 CNS
HL-60(TB) leukemia = test system: HL-60(TB) leukemia
MOLT-4 leukemia = test system: MOLT-4 leukemia
HCT-15 colon = test system: HCT-15 colon
CCRF-CEM leukemia = test system: CCRF-CEM leukemia
U251 CNS = test system: U251 CNS
HT29 colon = test system: HT29 colon
COLO 205 colon = test system: COLO 205 colon
IGROV1 ovarian = test system: IGROV1 ovarian
SN12C renal = test system: SN12C renal
SNB-78 CNS = test system: SNB-78 CNS
OVCAR-8 ovarian = test system: OVCAR-8 ovarian
OVCAR-3 ovarian = test system: OVCAR-3 ovarian
M14 melanoma = test system: M14 melanoma
HOP-92 NSCLC = test system: HOP-92 NSCLC
MALME-3M melanoma = test system: MALME-3M melanoma
HCT-116 colon = test system: HCT-116 colon
HCC-2998 colon = test system: HCC-2998 colon
SR leukemia = test system: SR leukemia
KM12 colon = test system: KM12 colon
NCI-H226 lung = test system: NCI-H226 lung
EKVX NSCLC = test system: EKVX NSCLC
HOP-18 NSCLC = test system: HOP-18 NSCLC
SK-OV-3 ovarian = test system: SK-OV-3 ovarian
SNB-75 CNS = test system: SNB-75 CNS
SF-268 CNS = test system: SF-268 CNS
NCI-H460 lung = test system: NCI-H460 lung
SK-MEL-28 melanoma = test system: SK-MEL-28 melanoma
TK-10 renal = test system: TK-10 renal
ACHN renal = test system: ACHN renal
DMS 273 small cell lung = test system: DMS 273 small cell lung
M19-MEL melanoma = test system: M19-MEL melanoma
CAKI-1 renal = test system: CAKI-1 renal
RPMI-8226 leukemia = test system: RPMI-8226 leukemia
A549 NSCLC = test system: A549 NSCLC
SW-620 colon = test system: SW-620 colon
A498 renal = test system: A498 renal
UO-31 renal = test system: UO-31 renal
786-0 renal = test system: 786-0 renal
OVCAR-4 ovarian = test system: OVCAR-4 ovarian
SNB-19 CNS = test system: SNB-19 CNS
OVCAR-5 ovarian = test system: OVCAR-5 ovarian
NCI-H522 lung = test system: NCI-H522 lung
UACC-257 melanoma = test system: UACC-257 melanoma
UACC-62 melanoma = test system: UACC-62 melanoma
HOP-62 NSCLC = test system: HOP-62 NSCLC
LOX IMVI melanoma = test system: LOX IMVI melanoma

Measured: TGI

CN(C)N=Nc1cccc(C(N)=O)c1
not listed: OVCAR-5 ovarian | NCI-H522 lung | UACC-257 melanoma | UACC-62 melanoma | HOP-62 NSCLC | LOX IMVI melanoma
> 100 µM: all other assays above

O=C1NC2(CCCCC2)C2CCCCC=C12 (configuration not stated)
not listed: KM20L2 colon | HCC-2998 colon | NCI-H226 lung
> 100 µM: all other assays above
